Test results as given in US6683077B2, “2-Amino-benzoxazinones for the treatment of viral infections” (G.D. Searle & Co., priority 1996, dated 2004).

The molecules below were run on HCMV engineered virus RC256 (assay: microbe, parasite or virus in culture). Settings: Human betaherpesvirus 5, Fibroblast, read-out: Antiviral Activity RC256, first value (EC50).
Format: cell-based, human cytomegalovirus
In the case of `COc1ccc(C[C@H](Nc2nc3ccc(CNC(=O)NCc4ccncc4)c(C)c3c(=O)o2)C(=O)N(C)Cc2ccccc2)cc1` [Example 9e, 4-Methoxy-N-methyl-αS-[[5-methyl-4-oxo-6-[[[[[(4-pyridinyl)methyl]amino]carbonyl]amino]methyl]-4H-3,1-benzoxazin-2-yl]amino]-N-(phenylmethyl)benzenepropanamide], the EC50 is reported as 35 µM.
Molecule `COc1ccc(C[C@H](Nc2nc3ccc(CNC(=O)CCc4ccncc4)c(C)c3c(=O)o2)C(=O)N(C)Cc2ccccc2)cc1` [Example 9f, N-[[2-[[1S-[(4-Methoxyphenyl)methyl]-2-[methyl(phenylmethyl)amino]-2-oxoethyl]amino]-5-methyl-4-oxo-4H-3,1-benzoxazin-6-yl]methyl]pyridine-4-propanamide] has an EC50 of 40 µM.
In the case of `COc1ccc(C[C@H](Nc2nc3ccc(CNC(=O)OCc4ccccc4)c(C)c3c(=O)o2)C(=O)N(C)Cc2ccccc2)cc1` [Example 9i, Phenylmethyl[[2-[[1S-[(4-methoxyphenyl)methyl]-2-[methyl(phenylmethyl)amino]-2-oxcethyl]amino]-5-methyl-4-oxo-4H-3,1-benzoxazin-6-yl]methyl]carbamate], the EC50 is reported as 14 µM.
Work on `COc1ccc(C[C@H](Nc2nc3ccc(CNC(=O)C(C)(C)C)c(C)c3c(=O)o2)C(=O)N(C)Cc2ccccc2)cc1` [Example 9l, αS-[[6-[[(2,2-Dimethyl-1-oxopropyl)amino]methyl]-5-methyl-4-oxo-4H-3,1-benzoxazin-2-yl]amino]-4-methoxy-N-methyl-N-(phenylmethyl)benzenepropanamide] yielded an EC50 of 65 µM.
Molecule `COc1ccc(C[C@H](Nc2nc3ccc(CNC(=O)CN4CCOCC4)c(C)c3c(=O)o2)C(=O)N(C)Cc2ccccc2)cc1` [Example 9n, N-[[2-[[1S-[(4-Methoxyphenyl)methyl]-2-[methyl(phenylmethyl)amino]-2-oxoethyl]amino]-5-methyl-4-oxo-4H-3,1-benzoxazin-6-yl]methyl]morpholine-4-acetamide] has an EC50 of 75 µM.
Work on `Cc1c(CNC(=O)OCc2ccccc2)ccc2nc(N[C@@H](Cc3ccc(Cl)cc3)C(=O)N(C)Cc3ccccc3)oc(=O)c12` [Example 9t, Phenylmethyl[[2-[[1S-[(4-chlorophenyl)methyl]-2-[methyl(phenylmethyl)amino]-2-oxoethyl]amino]-5-methyl-4-oxo-4H-3,1-benzoxazin-6-yl]methyl]carbamate] yielded an EC50 of 20 µM.
`COc1ccc(C[C@H](Nc2nc3ccc(CNC(=O)CCc4ccccc4)c(C)c3c(=O)o2)C(=O)N(C)Cc2ccccc2)cc1` [Example 9u, 4-Methoxy-N-methyl-αS-[[5-methyl-6-[[(1-oxo-3-phenylpropyl)amino]methyl]-4-oxo-4H-3,1-benzoxazin-2-yl]amino]-N-(phenylmethyl)benzenepropanamide] was tested, and the EC50 was 18 µM.
`Cc1c(CNC(=O)C=Cc2ccccc2)ccc2nc(N[C@@H](Cc3ccccc3)C(=O)N(C)Cc3ccccc3)oc(=O)c12` [Example 9v, N-Methyl-αS-[[5-methyl-6-[[(1-oxo-3-phenyl-2-propenyl)amino]methyl]-4-oxo-4H-3,1-benzoxazin-2-yl]amino]-N-(phenylmethyl)benzenepropanamide] was tested, and the EC50 was 26 µM.
For `Cc1c(CNC(=O)CCc2ccccc2)ccc2nc(N[C@@H](Cc3ccccc3)C(=O)N(C)Cc3ccccc3)oc(=O)c12` [Example 9w, N-Methyl-αS-[[5-methyl-6-[[(1-oxo-3-phenylpropyl)amino]-methyl]-4-oxo-4H-3,1-benzoxazin-2-yl]amino]-N-(phenylmethyl)benzenepropanamide], the EC50 was 13 µM.
Molecule `CC(=O)NCc1ccc2nc(N[C@@H](Cc3ccccc3)C(=O)N(C)Cc3ccccc3)oc(=O)c2c1C` [Example 9x, αS-[[6-[(Acetylamino)methyl]-5-methyl-4-oxo-4H-3,1-benzoxazin-2-yl]amino]-N-methyl-N-(phenylmethyl)benzenepropanamide] has an EC50 of 16 µM.
`Cc1c(CNC(=O)OCc2ccccc2)ccc2nc(N[C@@H](Cc3ccccc3)C(=O)N(C)Cc3cccnc3)oc(=O)c12` [Example 9z] was tested, and the EC50 was 10 µM.
`COC(=O)[C@H](Cc1ccccc1)Nc1nc2ccc(NC(=O)Cc3cccs3)c(C)c2c(=O)o1` [Example 11g, N-[6-[[(2-Thienylmethyl)carbonyl]amino]-5-methyl-4-oxo-4H-3,1-benzoxazin-2-yl]-L-phenylalanine, methyl ester] showed an EC50 of 10 µM.
For `COc1ccc(C[C@H](Nc2nc3ccc(NC(=O)Cc4cccs4)c(C)c3c(=O)o2)C(=O)N2CCCC2)cc1` [Example 11o, N-[2-[[1S-[(4-Methoxyphenyl)methyl]-2-oxo-2-(1-pyrrolidinyl)ethyl]amino]-5-methyl-4-oxo-4H-3,1-benzoxazin-6-yl]thiophene-2-acetamide], the EC50 was 59 µM.
Molecule `CCOC(=O)Nc1ccc2nc(N[C@@H](Cc3ccc(OC)cc3)C(=O)N(C)Cc3ccccc3)oc(=O)c2c1C` [Example 11r, Ethyl[2-[[1S-[(4-methoxyphenyl)methyl]-2-[methyl(phenylmethyl)amino]-2-oxoethyl]amino]-5-methyl-4H-3,1-benzoxazin-6-yl]carbamate] has an EC50 of 12 µM.
In the case of `Cc1c(NC(=O)N[C@H](C)c2ccccc2)ccc2nc(N[C@H](C)c3ccccc3)oc(=O)c12` [Example 12c, ^6-[[[[(1R)-Phenylethyl]amino]carbonyl]amino]-5-methyl-2-[[(1R)-phenylethyl]amino]-4H-3,1-benzoxazin-4-one], the EC50 is reported as 17 µM.
`COc1ccc(C[C@H](Nc2nc3ccc(CNC(=O)NC(C)(C)C)c(C)c3c(=O)o2)C(=O)N(C)Cc2ccccc2)cc1` [Example 12d, αS-[[6-[[[[(1,1-Dimethylethyl)amino]carbonyl]amino]methyl]-5-methyl-4-oxo-4H-3,1-benzoxazin-2-yl]amino]-4-methoxy-N-methyl-N-(phenylmethyl)benzenepropanamide] was tested, and the EC50 was 14 µM.
`Cc1c(CNC(=O)NC(C)(C)C)ccc2nc(N[C@@H](Cc3ccccc3)C(=O)N(C)Cc3ccccc3)oc(=O)c12` [Example 12e, αS-[[6-[[[[(1,1-Dimethylethyl)amino]carbonyl]amino]methyl]-5-methyl-4-oxo-4H-3,1-benzoxazin-2-yl]amino]-N-methyl-N-(phenylmethyl)benzenepropanamide] showed an EC50 of 14 µM.
Work on `COC(=O)[C@H](Cc1ccccc1)Nc1nc2ccc(NS(=O)(=O)c3ccccc3)c(C)c2c(=O)o1` [Example 13] yielded an EC50 of 60 µM.
With `COC(=O)[C@H](C)Nc1nc2ccc(NS(=O)(=O)c3ccccc3)c(C)c2c(=O)o1` [Example 13a] the EC50 was 60 µM.
For `Cc1c(CNC(=O)CN(C)C)cc(Br)c2nc(N[C@@H](Cc3ccccc3)C(=O)N(C)Cc3ccccc3)oc(=O)c12` [Example 15a, αS-[[8-Bromo-6-[[[2-(dimethylamino)acetyl]amino]methyl]-5-methyl-4-oxo-4H-3,1-benzoxazin-2-yl]amino]-N-methyl-N-(phenylmethyl)benzenepropanamide], the EC50 was 21 µM.
For `Cc1c(CNS(C)(=O)=O)cc(Br)c2nc(N[C@@H](Cc3ccccc3)C(=O)N(C)Cc3ccccc3)oc(=O)c12` [Example 15j, αS-[[8-Bromo-5-methyl-6-[[(methylsulfonyl)amino]methyl]-4-oxo-4H-3,1-benzoxazin-2-yl]amino]-N-methyl-N-(phenylmethyl)benzenepropanamide], the EC50 was 13 µM.
`COc1ccc(C[C@H](Nc2nc3ccc(N(C)C)c(C)c3c(=O)o2)C(=O)N(C)Cc2ccccc2)cc1` [Example 16a, αS-[[6-(Dimethylamino)-5-methyl-4-oxo-4H-3,1-benzoxazin-2-yl]amino]-4-methoxy-N-methyl-N-(phenylmethyl)benzenepropanamide] was tested, and the EC50 was 15 µM.
Molecule `COc1ccc(C[C@H](Nc2nc3ccc(CNC(=O)OCc4cccnc4)c(C)c3c(=O)o2)C(=O)N(C)Cc2ccccc2)cc1` [Example 18, 3-Pyridinylmethyl[[2-[[1S-[(4-methoxyphenyl)methyl]-2-[methyl(phenylmethyl)amino]-2-oxoethyl]amino]-5-methyl-4-oxo-4H-3,1-benzoxazin-6-yl]methyl]carbamate] has an EC50 of 14 µM.
Molecule `COc1ccc(C[C@H](Nc2nc3ccc(CNC(=O)OCCN4CCCCC4)c(C)c3c(=O)o2)C(=O)N(C)Cc2ccccc2)cc1` [Example 18a, 2-(1-Piperidinyl)ethyl[[2-[[1S-[(4-methoxyphenyl)methyl]-2-[methyl(phenylmethyl)amino]-2-oxoethyl]amino]-5-methyl-4-oxo-3,1-benzoxazin-6-yl]methyl]carbamate] has an EC50 of 5 µM.
For `COc1ccc(C[C@H](Nc2nc3ccc(CNC(=O)OCCN4CCOCC4)c(C)c3c(=O)o2)C(=O)N(C)Cc2ccccc2)cc1` [Example 18b, 2-(4-Morpholinyl)ethyl[[2-[[1S-[(4-methoxyphenyl)methyl]-2-[methyl(phenylmethyl)amino]-2-oxoethyl]amino]-5-methyl-4-oxo-3,1-benzoxazin-6-yl]methyl]carbamate], the EC50 was 12 µM.
In the case of `COc1ccc(C[C@H](Nc2nc3ccc(CNC(=O)OCCN(C)C)c(C)c3c(=O)o2)C(=O)N(C)Cc2ccccc2)cc1` [Example 18c, 2-(Dimethylamino)ethyl[[2-[[1S-[(4-methoxyphenyl)methyl]-2-[methyl(phenylmethyl)amino]-2-oxoethyl]amino]-5-methyl-4-oxo-3,1-benzoxazin-6-yl]methyl]carbamate], the EC50 is reported as 15 µM.
Work on `Cc1c(CNC(=O)OCc2cccnc2)ccc2nc(N[C@@H](Cc3ccccc3)C(=O)N(C)Cc3ccccc3)oc(=O)c12` [Example 18e, 3-Pyridinylmethyl[[5-methyl-2-[[2-[methyl(phenylmethyl)amino]-2-oxo-1S-(phenylmethyl)ethyl]amino]-4-oxo-4H-3,1-benzoxazin-6-yl]methyl]carbamate] yielded an EC50 of 7 µM.
In the case of `Cc1c(CNC(=O)OCCN(C)C)ccc2nc(N[C@@H](Cc3ccccc3)C(=O)N(C)Cc3ccccc3)oc(=O)c12` [Example 18g, 2-(Dimethylamino)ethyl[[5-methyl-2-[[2-[methyl(phenylmethyl)amino]-2-oxo-1S-(phenylmethyl)ethyl]amino]-4-oxo-4H-3,1-benzoxazin-6-yl]methyl]carbamate], the EC50 is reported as 13 µM.
`Cc1c(CNC(=O)OCCN2CCOCC2)ccc2nc(N[C@@H](Cc3ccccc3)C(=O)N(C)Cc3ccccc3)oc(=O)c12` [Example 18h] gave an EC50 of 11 µM.
